{"source": "patent US11311646B2", "about": "“Therapeutic material” (ASTON UNIVERSITY, priority 2016, dated 2022)", "key": {"[1]": {"tested_on": "Human osteoblasts (NHOst)", "assay": "MTT viability assay, NHOst", "format": "cell-based", "settings": "10 nm etoposide, 72 hours", "description": "Human osteoblasts (NHOst) were purchased from Lonza and cultured in Clonetics OGM Osteoblast growth media supplemented with 10% FBS, 1% L-glutamine and 1% penicillin, streptomycin. Both cell lines were maintained at 37° C. in a humidified atmosphere of 5% CO2/95% air.\n(§1) Stock solutions of conditioned media were prepared by dissolving glass particles (from Example 1-3) in complete McCoy's 5A medium to treat Saos-2 cells and Clonetics OGM Osteoblast complete growth media to treat osteoblasts.\n(§2) Stock solutions were prepared at a concentration of 10 mg/ml and left to incubate in a shaker incubator at 250 rpm at 37° C. for 24 hours. Following the 24 hour incubation period, stock solutions were filtered using 0.2 micron syringe filter. 3 ml samples were excluded to record stock solution pH values following glass dissolution.\n(§3) Cell cytotoxicity was analysed using MTT viability assay (Thermo Fisher), where 5000 cells per well of both Saos-2 and NHOst cells were cultured using conditioned media containing 10 mg/ml respective glass compositions (Examples 1-3), for a period of 72 hours. […] Metabolically active cells reduce MTT to formazan and after formazan extraction the optical density was measured using a spectrophotometer (at 570 nm). […]"}, "[2]": {"tested_on": "Human osteosarcoma (Saos-2) cells", "assay": "MTT viability assay, Saos-2", "format": "cell-based", "settings": "10 nm etoposide, 72 hours", "description": "Human osteosarcoma (Saos-2) cells were purchased from the American Tissue Culture Collection and maintained in McCoy's 5A medium containing 1.5 mM L-glutamine and 2200 mg/L sodium bicarbonate. Media was supplemented with 1% penicillin, streptomycin and 15% foetal bovine serum (FBS).\nas §1, §2, §3"}}}
{"smiles": "COc1cc([C@@H]2c3cc4c(cc3[C@@H](O[C@@H]3O[C@@H]5CO[C@@H](C)O[C@H]5[C@H](O)[C@H]3O)[C@H]3COC(=O)[C@H]23)OCO4)cc(OC)c1O", "note": "[etoposide, Etoposide]", "values": [{"measurement": "NHOst cell death, positive control", "setting": "[1]", "value": "inducer of cell death (p<0.0001)"}, {"measurement": "Saos-2 cell death, positive control", "setting": "[2]", "value": "inducer of cell death (p<0.0001)"}]}
